These results are taken from patent US12611387B2, “Compound and composition for inducing neuroprotection” (REST THERAPEUTICS, priority 2020, dated 2026).

Assay [1] relates to Aβ25-35 oligomer-intoxicated mice. As to the kind of experiment: Morris water maze, symptomatic treatment. In kind it is in vivo. To be noted: symptomatic design (not shown). On the procedure:
(§1) The test compounds were tested for their ability to decrease the cognitive symptoms of Aβ25-35 oligomer-induced neurodegeneration, i.e. their ability to provide symptomatic anti-amnestic treatment (FIGS. 1A and 1B). In brief, to test the symptomatic effect of the test compounds, they were administered 8 days after the icy injection of the Aβ25-35 oligomers, 30 minutes before the YMT and PAT memory tests were conducted or 30 minutes before the test, but after the training session, in the case of the MWT or ORT (FIG. 1A). The Hamlet Test® (FIG. 1B) involves a 2-week training session (4 hr/day) followed by a test (max. 10 min) under water deprivation conditions and under normal conditions; the Aβ25-35 peptide is injected after this first test. […]
This test is used to assess long-term spatial reference memory. […] The animals' swimming behaviour was recorded (Videotrack® software, Viewpoint), and the trajectories, latencies and distances covered were measured. […] Median latency (time taken to find the platform) was calculated for each training day and expressed for the group as the mean latency±standard deviation. […] Each mouse was left in the water for 60 seconds and its swimming behaviour was recorded. The time spent in the north-eastern quadrant, which originally contained the platform (T), was measured and compared to the average time spent in the other quadrants (o).

For assay [2] the test system is unchanged. As to the kind of experiment: Object recognition test, symptomatic treatment. Format: in vivo. To be noted: symptomatic design (not shown). On the procedure:
as §1, with “test. After one week, the compounds are administered and a second test under water deprivation conditions and under normal conditions is performed 30 min after injection.” for “test.”
This test is used to assess recognition memory abilities (Rodriguez Cruz et al., 2017; Maurice et al., 2019). […] The exploratory behaviour, activity and position of the animal's nose were recorded for 10 minutes (Nosetrack® software, Viewpoint, Lissieu, France). The number of contacts with the objects and the duration thereof were measured. […] The exploratory behaviour of each mouse was then also recorded for 10 minutes. […]
An exploration index was calculated using to the following formula: […]

The test system of the next assay is NMDA receptors. To be noted: described in WO 2014/191424; cited from earlier work.
The subject of assay [3] is Aβ25-35 oligomer-intoxicated mice. As to the kind of experiment: Hamlet test, symptomatic treatment. To be noted: 0.3 mg/Kg, symptomatic design. Format: in vivo, C57Bl/6j mice. On the procedure:
The test compounds were tested for their ability to decrease the cognitive symptoms of Aβ25-35 oligomer-induced neurodegeneration, i.e. their ability to provide symptomatic anti-amnestic treatment (FIGS. 1A and 1B). In brief, to test the symptomatic effect of the test compounds, they were administered 8 days after the icy injection of the Aβ25-35 oligomers, 30 minutes before the YMT and PAT memory tests were conducted or 30 minutes before the test, but after the training session, in the case of the MWT or ORT (FIG. 1A). […]
The Hamlet Test® device, with a diameter of 1.2 m, comprises a central square (the agora) and streets that radiate out therefrom and lead to functionalised compartments or houses that allow a physiological function to be met or that enrich the environment. The walls and streets of the hamlet were made of infrared-transparent PVC, the test room was uniformly lit (200 Lux), infrared diodes were placed under the floor of the hamlet and an infrared camera recorded the behaviour of the animals. […]
This test was described by Crouzier et al. (2018 a and b). […] The exploratory behaviour was recorded alongside the time taken to find the Drink house and the number of errors made (number of entries into a street not leading to the Drink house). […] A disorientation index (DI) was calculated for each variable (time to find the drink house, number of errors): […]

As for `NC12CC3CC(C1)CC(CCF)(C3)C2` [FENM, 3-(2-fluoroethyl)adamantan-1-amine], the “anti-amnestic effect in Morris water maze” value in assay [1] is recorded as “confirmed”. Also, the “anti-amnestic effect in object recognition” value in assay [2] was “confirmed”. Further, in the assay on NMDA receptors, the “affinity for NMDA receptors” value is “of an order of magnitude that is similar to that of memantine”. Besides, in assay [3], the “disorientation index calculated for errors” value was “reduced to the level of those of the untreated, non-intoxicated mice” and the “disorientation index calculated for latency” value was “reduced to the level of those of the untreated, non-intoxicated mice”.
